Laboratory results: the supplement of paper PMC11281043

Key:
Conditions in all cases: exposure: 6-8 hpf to 5 dpf, scored at 6 dpf
Danio rerio embryo/larva [1] = experiment: max % larvae generally abnormal across tested concentrations; higher = more toxic; extreme values may be limits of the assay
Danio rerio embryo/larva [2] = experiment: max % larvae with spinal defects across tested concentrations; higher = more toxic; extreme values may be limits of the assay
Danio rerio embryo/larva [3] = experiment: max % larvae with blood pooling across tested concentrations; higher = more toxic; extreme values may be limits of the assay
Danio rerio embryo/larva [4] = experiment: max % larvae with craniofacial defects across tested concentrations; higher = more toxic; extreme values may be limits of the assay
Danio rerio embryo/larva [5] = experiment: max % larvae with edema across tested concentrations; higher = more toxic; extreme values may be limits of the assay
Danio rerio embryo/larva [6] = experiment: max % larvae with tail defects across tested concentrations; higher = more toxic; extreme values may be limits of the assay
Danio rerio embryo/larva [7] = experiment: max % larvae with pigmentation defects across tested concentrations; higher = more toxic
Danio rerio embryo/larva [8] = experiment: max % larvae with uninflated swim bladder across tested concentrations; higher = more toxic; extreme values may be limits of the assay
Danio rerio embryo/larva [9] = experiment: max % larvae with abnormal position across tested concentrations; higher = more toxic; extreme values may be limits of the assay

Question: What does the source list for `O=C(Cl)C(F)(F)C(F)(F)C(F)(F)C(F)(F)C(F)(F)C(F)(F)C(F)(F)F` [Pentadecafluorooctanoyl chloride] (max tested concentration (log10 uM): 2)?
Answer: max % larvae generally abnormal across tested concentrations (Danio rerio embryo/larva [1]): 16.7%; max % larvae (Danio rerio embryo/larva [2]): 12.5%; max % larvae (Danio rerio embryo/larva [3]): 16.7%; max % larvae (Danio rerio embryo/larva [4]): 16.7%; max % larvae (Danio rerio embryo/larva [5]): 16.7%; max % larvae (Danio rerio embryo/larva [6]): 12.5%; max % larvae (Danio rerio embryo/larva [7]): 0%; max % larvae (Danio rerio embryo/larva [8]): 16.7%; max % larvae (Danio rerio embryo/larva [9]): 12.5%

Question: Which results are given for `NC(=O)C(F)(F)C(F)(F)F` [Pentafluoropropionamide] (max tested concentration (log10 uM): 2)?
Answer: max % larvae generally abnormal across tested concentrations (Danio rerio embryo/larva [1]): 0%; max % larvae (Danio rerio embryo/larva [2]): 0%; max % larvae (Danio rerio embryo/larva [3]): 0%; max % larvae (Danio rerio embryo/larva [4]): 0%; max % larvae (Danio rerio embryo/larva [5]): 0%; max % larvae (Danio rerio embryo/larva [6]): 0%; max % larvae (Danio rerio embryo/larva [7]): 0%; max % larvae (Danio rerio embryo/larva [8]): 0%; max % larvae (Danio rerio embryo/larva [9]): 0%

Question: Which results are given for `O=C(O)C(F)(F)C(F)(F)C(F)(F)OC(F)(F)F` [Perfluoro(4-methoxybutanoic acid)] (max tested concentration (log10 uM): 2)?
Answer: max % larvae generally abnormal across tested concentrations (Danio rerio embryo/larva [1]): 0%; max % larvae (Danio rerio embryo/larva [2]): 0%; max % larvae (Danio rerio embryo/larva [3]): 0%; max % larvae (Danio rerio embryo/larva [4]): 0%; max % larvae (Danio rerio embryo/larva [5]): 0%; max % larvae (Danio rerio embryo/larva [6]): 0%; max % larvae (Danio rerio embryo/larva [7]): 0%; max % larvae (Danio rerio embryo/larva [8]): 0%; max % larvae (Danio rerio embryo/larva [9]): 0%

Question: What does the source list for `FC(F)(F)C(F)(F)C(F)(F)C(F)(F)C(F)(F)C(F)(F)I` [Perfluoro-1-iodohexane] (max tested concentration (log10 uM): 2)?
Answer: max % larvae generally abnormal across tested concentrations (Danio rerio embryo/larva [1]): 0%; max % larvae (Danio rerio embryo/larva [2]): 0%; max % larvae (Danio rerio embryo/larva [3]): 0%; max % larvae (Danio rerio embryo/larva [4]): 0%; max % larvae (Danio rerio embryo/larva [5]): 0%; max % larvae (Danio rerio embryo/larva [6]): 0%; max % larvae (Danio rerio embryo/larva [7]): 0%; max % larvae (Danio rerio embryo/larva [8]): 0%; max % larvae (Danio rerio embryo/larva [9]): 0%

Question: For `O=S(=O)(O)C(F)(F)C(F)(F)OC(F)(F)C(F)(F)F` [Perfluoro-2-ethoxyethanesulfonic acid] (max tested concentration (log10 uM): 2), which “max % larvae generally abnormal across tested concentrations” value (Danio rerio embryo/larva [1]) is on record?
Answer: 8.33%

Question: What about the max % larvae (Danio rerio embryo/larva [2]) of the same compound?
Answer: 0%

Question: And the max % larvae (Danio rerio embryo/larva [3])?
Answer: 0%

Question: What about the max % larvae (Danio rerio embryo/larva [4]) of the same compound?
Answer: 0%

Question: And the max % larvae (Danio rerio embryo/larva [5])?
Answer: 8.33%

Question: What about the max % larvae (Danio rerio embryo/larva [6]) of the same compound?
Answer: 0%

Question: And the max % larvae (Danio rerio embryo/larva [7])?
Answer: 0%

Question: And the max % larvae (Danio rerio embryo/larva [8])?
Answer: 16.7%

Question: And the max % larvae (Danio rerio embryo/larva [9])?
Answer: 0%

Question: For `O=C(O)C(F)(F)OC(F)(F)C(F)(F)OC(F)(F)C(F)(F)OC(F)(F)F` [Perfluoro-3,6,9-trioxadecanoic acid] (max tested concentration (log10 uM): 2), which “max % larvae generally abnormal across tested concentrations” value (Danio rerio embryo/larva [1]) is on record?
Answer: 70%

Question: And the max % larvae (Danio rerio embryo/larva [2])?
Answer: 20%

Question: What about the max % larvae (Danio rerio embryo/larva [3]) of the same compound?
Answer: 40%

Question: And the max % larvae (Danio rerio embryo/larva [4])?
Answer: 40%

Question: What about the max % larvae (Danio rerio embryo/larva [5]) of the same compound?
Answer: 45%

Question: What about the max % larvae (Danio rerio embryo/larva [6]) of the same compound?
Answer: 30%

Question: What about the max % larvae (Danio rerio embryo/larva [7]) of the same compound?
Answer: 0%

Question: What about the max % larvae (Danio rerio embryo/larva [8]) of the same compound?
Answer: 100%

Question: And the max % larvae (Danio rerio embryo/larva [9])?
Answer: 25%

Question: How did the “max % larvae generally abnormal across tested concentrations” value (Danio rerio embryo/larva [1]) turn out when `O=C(O)C(F)(F)OC(F)(F)C(F)(F)OC(F)(F)C(F)(F)C(F)(F)C(F)(F)F` [Perfluoro-3,6-dioxadecanoic acid] (max tested concentration (log10 uM): 2) was run?
Answer: 68.8%

Question: What about the max % larvae (Danio rerio embryo/larva [2]) of the same compound?
Answer: 0%

Question: What about the max % larvae (Danio rerio embryo/larva [3]) of the same compound?
Answer: 50%

Question: What about the max % larvae (Danio rerio embryo/larva [4]) of the same compound?
Answer: 75%

Question: What about the max % larvae (Danio rerio embryo/larva [5]) of the same compound?
Answer: 56.2%

Question: What about the max % larvae (Danio rerio embryo/larva [6]) of the same compound?
Answer: 6.25%

Question: What about the max % larvae (Danio rerio embryo/larva [7]) of the same compound?
Answer: 0%

Question: And the max % larvae (Danio rerio embryo/larva [8])?
Answer: 62.5%

Question: And the max % larvae (Danio rerio embryo/larva [9])?
Answer: 31.2%

Question: How did the “max % larvae generally abnormal across tested concentrations” value (Danio rerio embryo/larva [1]) turn out when `O=C(O)C(F)(F)OC(F)(F)C(F)(F)OC(F)(F)F` [Perfluoro-3,6-dioxaheptanoic acid] (max tested concentration (log10 uM): 2) was run?
Answer: 4.17%

Question: And the max % larvae (Danio rerio embryo/larva [2])?
Answer: 0%

Question: What about the max % larvae (Danio rerio embryo/larva [3]) of the same compound?
Answer: 0%

Question: And the max % larvae (Danio rerio embryo/larva [4])?
Answer: 0%

Question: And the max % larvae (Danio rerio embryo/larva [5])?
Answer: 4.17%

Question: What about the max % larvae (Danio rerio embryo/larva [6]) of the same compound?
Answer: 0%

Question: And the max % larvae (Danio rerio embryo/larva [7])?
Answer: 0%

Question: And the max % larvae (Danio rerio embryo/larva [8])?
Answer: 0%

Question: What about the max % larvae (Danio rerio embryo/larva [9]) of the same compound?
Answer: 0%

Question: Which results are given for `O=C(O)C(F)(F)OC(F)(F)C(F)(F)OC(F)(F)C(=O)O` [Perfluoro-3,6-dioxaoctane-1,8-dioic acid] (max tested concentration (log10 uM): 2)?
Answer: max % larvae generally abnormal across tested concentrations (Danio rerio embryo/larva [1]): 0%; max % larvae (Danio rerio embryo/larva [2]): 0%; max % larvae (Danio rerio embryo/larva [3]): 0%; max % larvae (Danio rerio embryo/larva [4]): 0%; max % larvae (Danio rerio embryo/larva [5]): 0%; max % larvae (Danio rerio embryo/larva [6]): 0%; max % larvae (Danio rerio embryo/larva [7]): 0%; max % larvae (Danio rerio embryo/larva [8]): 0%; max % larvae (Danio rerio embryo/larva [9]): 0%

Question: Which results are given for `O=C(O)C(F)(F)C(F)(F)C(F)(F)OC(F)(C(F)(F)F)C(F)(F)F` [Perfluoro-4-isopropoxybutanoic acid] (max tested concentration (log10 uM): 2)?
Answer: max % larvae generally abnormal across tested concentrations (Danio rerio embryo/larva [1]): 0%; max % larvae (Danio rerio embryo/larva [2]): 0%; max % larvae (Danio rerio embryo/larva [3]): 0%; max % larvae (Danio rerio embryo/larva [4]): 0%; max % larvae (Danio rerio embryo/larva [5]): 0%; max % larvae (Danio rerio embryo/larva [6]): 0%; max % larvae (Danio rerio embryo/larva [7]): 0%; max % larvae (Danio rerio embryo/larva [8]): 0%; max % larvae (Danio rerio embryo/larva [9]): 0%

Question: `O=S(=O)(O)C(F)(F)C(F)(F)C(F)(F)C(F)(F)F` [Perfluorobutanesulfonic acid] (max tested concentration (log10 uM): 2) was tested. Which “max % larvae generally abnormal across tested concentrations” value (Danio rerio embryo/larva [1]) did it give?
Answer: 0%

Question: And the max % larvae (Danio rerio embryo/larva [2])?
Answer: 0%

Question: What about the max % larvae (Danio rerio embryo/larva [3]) of the same compound?
Answer: 0%

Question: And the max % larvae (Danio rerio embryo/larva [4])?
Answer: 0%

Question: What about the max % larvae (Danio rerio embryo/larva [5]) of the same compound?
Answer: 0%

Question: What about the max % larvae (Danio rerio embryo/larva [6]) of the same compound?
Answer: 0%

Question: And the max % larvae (Danio rerio embryo/larva [7])?
Answer: 0%

Question: And the max % larvae (Danio rerio embryo/larva [8])?
Answer: 0%

Question: What about the max % larvae (Danio rerio embryo/larva [9]) of the same compound?
Answer: 0%

Question: How did the “max % larvae generally abnormal across tested concentrations” value (Danio rerio embryo/larva [1]) turn out when `O=C(O)C(F)(F)C(F)(F)C(F)(F)F` [Perfluorobutanoic acid] (max tested concentration (log10 uM): 2) was run?
Answer: 20%

Question: And the max % larvae (Danio rerio embryo/larva [2])?
Answer: 0%

Question: What about the max % larvae (Danio rerio embryo/larva [3]) of the same compound?
Answer: 0%

Question: What about the max % larvae (Danio rerio embryo/larva [4]) of the same compound?
Answer: 20%

Question: What about the max % larvae (Danio rerio embryo/larva [5]) of the same compound?
Answer: 20%

Question: And the max % larvae (Danio rerio embryo/larva [6])?
Answer: 0%

Question: What about the max % larvae (Danio rerio embryo/larva [7]) of the same compound?
Answer: 0%

Question: What about the max % larvae (Danio rerio embryo/larva [8]) of the same compound?
Answer: 20%

Question: And the max % larvae (Danio rerio embryo/larva [9])?
Answer: 0%
